How the values were obtained:
[1] = test system: giant foxtail; assay: Test A pre-/postemergence greenhouse test; format: in vivo, Setaria faberi; settings: for Plant response rating, Foxtail, Giant: 0 to 100 scale where 0 is no effect and 100 is complete control; for Foxtail, Giant plant response rating: 0 to 100 scale
How it was run: (§1)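 Test compounds in non-phytotoxic solvent with surfactant were applied as a preemergence soil spray to seeded loam/sand pots and, concurrently, postemergence to plants at 2–10 cm, one- to two-leaf stage. About ten days in greenhouse, then injury visually rated against untreated controls.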

[2] = test system: duck salad; assay: Test C flooded paddy test; format: in vivo, Heteranthera limosa; settings: Flood
Description: (§2) At time of treatment, test pots were flooded to 3 cm above the soil surface, treated by application of test compounds directly to the paddy water, and then maintained at that water depth for the duration of the test. Treated plants and controls were maintained in a greenhouse for 13 to 15 days, after which time all species were compared to controls and visually evaluated. […] A dash (-) response means no test result.

[3] = test system: barnyardgrass; assay: Test A pre-/postemergence greenhouse test; format: in vivo, Echinochloa crus-galli; settings: for Plant response rating, Barnyardgrass: 0 to 100 scale where 0 is no effect and 100 is complete control; for Barnyardgrass plant response rating: 0 to 100 scale
How it was run: as §1

[4] = test system: morningglory; assay: Test A pre-/postemergence greenhouse test; format: in vivo, Ipomoea spp.; settings: for Plant response rating, Morningglory: 0 to 100 scale where 0 is no effect and 100 is complete control; for Morningglory plant response rating: 0 to 100 scale
How it was run: as §1

[5] = test system: velvetleaf; assay: Test A pre-/postemergence greenhouse test; format: in vivo, Abutilon theophrasti; settings: for Plant response rating, Velvetleaf: 0 to 100 scale where 0 is no effect and 100 is complete control; for Velvetleaf plant response rating: 0 to 100 scale
How it was run: as §1

[6] = test system: barnyardgrass; assay: Test C flooded paddy test; format: in vivo, Echinochloa crus-galli; settings: Flood
Description: as §2

[7] = test system: crabgrass; assay: Test A pre-/postemergence greenhouse test; format: in vivo, Digitaria sanguinalis; settings: for Plant response rating, Crabgrass, Large: 0 to 100 scale where 0 is no effect and 100 is complete control; for Crabgrass, Large plant response rating: 0 to 100 scale
How it was run: as §1

[8] = test system: corn; assay: Test A pre-/postemergence greenhouse test; format: in vivo, Zea mays; settings: for Plant response rating, Corn: 0 to 100 scale where 0 is no effect and 100 is complete control; for Corn plant response rating: 0 to 100 scale
How it was run: as §1

[9] = test system: rice; assay: Test C flooded paddy test; format: in vivo, Oryza sativa; settings: Flood
Description: as §2

[10] = test system: umbrella sedge; assay: Test C flooded paddy test; format: in vivo, Cyperus difformis; settings: Flood
Description: as §2

[11] = test system: wheat; assay: Test A pre-/postemergence greenhouse test; format: in vivo, Triticum aestivum; settings: for Plant response rating, Wheat: 0 to 100 scale where 0 is no effect and 100 is complete control; for Wheat plant response rating: 0 to 100 scale
How it was run: as §1

[12] = test system: redroot pigweed; assay: Test A pre-/postemergence greenhouse test; format: in vivo, Amaranthus retroflexus; settings: for Plant response rating, Pigweed: 0 to 100 scale where 0 is no effect and 100 is complete control; for Pigweed plant response rating: 0 to 100 scale
How it was run: as §1

[13] = Postemergence, 500 g ai/ha, 0 is no effect, 100 is complete control
[14] = Preemergence, 125 g ai/ha, 0 no effect, 100 complete control
[15] = 62 g ai/ha, scale 0 to 100 (0 no effect, 100 complete control)
[16] = 250 g ai/ha, scale 0 to 100, 0 no effect, 100 complete control, 13 to 15 days
[17] = Preemergence, 500 g ai/ha, 0 no effect, 100 complete control

Compound	Plant response rating, Foxtail, Giant ([1]; Postemergence, 125 g ai/ha)	Foxtail, Giant plant response rating [1, 13]	Foxtail, Giant plant response rating [1, 14]	Plant response rating, Foxtail, Giant ([1]; Preemergence, 500 g ai/ha)	Plant response rating, Ducksalad [2, 15]	Plant response rating, Ducksalad [2, 16]	Plant response rating, Barnyardgrass ([3]; Postemergence, 125 g ai/ha)	Barnyardgrass plant response rating [3, 13]	Barnyardgrass plant response rating [3, 14]	Plant response rating, Barnyardgrass ([3]; Preemergence, 500 g ai/ha)	Plant response rating, Morningglory ([4]; Postemergence, 125 g ai/ha)	Morningglory plant response rating [4, 13]	Morningglory plant response rating [4, 14]	Plant response rating, Morningglory ([4]; Preemergence, 500 g ai/ha)	Plant response rating, Velvetleaf ([5]; Postemergence, 125 g ai/ha)	Velvetleaf plant response rating [5, 13]	Velvetleaf plant response rating [5, 14]	Plant response rating, Barnyardgrass [6, 15]	Plant response rating, Barnyardgrass [6, 16]	Plant response rating, Crabgrass, Large ([7]; Postemergence, 125 g ai/ha)	also measured
Cn1nc(C(F)(F)C(F)(F)F)c(CS(=O)(=O)c2cccc[n+]2[O-])c1OCC(F)(F)F [Compound 84]	70	80	80	100	75	85	70	80	90	100	20	70	70	90	20	70	70	15	60	70	Plant response rating, Velvetleaf ([5]; Preemergence, 500 g ai/ha): 100; Crabgrass, Large plant response rating [7, 13]: 80; Crabgrass, Large plant response rating [7, 14]: 60; Plant response rating, Crabgrass, Large ([7]; Preemergence, 500 g ai/ha): 90; Plant response rating, Corn ([8]; Postemergence, 125 g ai/ha): 0; Corn plant response rating [8, 13]: 40; Corn plant response rating [8, 14]: 0; Plant response rating, Corn ([8]; Preemergence, 500 g ai/ha): 30; Plant response rating, Rice [9, 15]: 30; Plant response rating, Rice [9, 16]: 65; Plant response rating, Sedge, Umbrella [10, 15]: 75; Plant response rating, Sedge, Umbrella [10, 16]: 100; Plant response rating, Wheat ([11]; Postemergence, 125 g ai/ha): 30; Wheat plant response rating [11, 13]: 60; Wheat plant response rating [11, 14]: 40; Plant response rating, Wheat ([11]; Preemergence, 500 g ai/ha): 100; Plant response rating, Pigweed ([12]; Postemergence, 125 g ai/ha): 40; Pigweed plant response rating [12, 13]: 70; Pigweed plant response rating [12, 14]: 60; Plant response rating, Pigweed ([12]; Preemergence, 500 g ai/ha): 100
Cc1cc[n+]([O-])c(S(=O)(=O)Cc2c(C(F)(F)F)nn(C)c2OCC(F)(F)C(F)(F)F)c1 [Compound 98]	20	80	50	100	0	0	0	70	60	100	10	80	0	50	0	40	0	0	0	10	Velvetleaf plant response rating [5, 17]: 50; Crabgrass, Large plant response rating [7, 13]: 70; Crabgrass, Large plant response rating [7, 14]: 30; Plant response rating, Crabgrass, Large ([7]; Preemergence, 500 g ai/ha): 90; Plant response rating, Corn ([8]; Postemergence, 125 g ai/ha): 30; Corn plant response rating [8, 13]: 30; Corn plant response rating [8, 14]: 0; Plant response rating, Corn ([8]; Preemergence, 500 g ai/ha): 0; Plant response rating, Rice [9, 15]: 0; Plant response rating, Rice [9, 16]: 0; Plant response rating, Sedge, Umbrella [10, 15]: 0; Plant response rating, Sedge, Umbrella [10, 16]: 0; Plant response rating, Wheat ([11]; Postemergence, 125 g ai/ha): 0; Wheat plant response rating [11, 13]: 0; Wheat plant response rating [11, 14]: 0; Wheat plant response rating [11, 17]: 20; Plant response rating, Pigweed ([12]; Postemergence, 125 g ai/ha): 0; Pigweed plant response rating [12, 13]: 20; Pigweed plant response rating [12, 14]: 20; Plant response rating, Pigweed ([12]; Preemergence, 500 g ai/ha): 60
Cn1nc(OC(F)F)c(C[S+]([O-])c2cccc[n+]2[O-])c1C(F)(F)F (stereo not drawn) [Compound 74]	60	90	80	90	70	65	50	80	70	90	40	80	20	90	20	70	0	15	30	40	Plant response rating, Velvetleaf ([5]; Preemergence, 500 g ai/ha): 60; Crabgrass, Large plant response rating [7, 13]: 80; Crabgrass, Large plant response rating [7, 14]: 60; Plant response rating, Crabgrass, Large ([7]; Preemergence, 500 g ai/ha): 90; Plant response rating, Corn ([8]; Postemergence, 125 g ai/ha): 0; Corn plant response rating [8, 13]: 60; Corn plant response rating [8, 14]: 0; Plant response rating, Corn ([8]; Preemergence, 500 g ai/ha): 80; Plant response rating, Rice [9, 15]: 10; Plant response rating, Rice [9, 16]: 10; Plant response rating, Sedge, Umbrella [10, 15]: 0; Plant response rating, Sedge, Umbrella [10, 16]: 50; Plant response rating, Wheat ([11]; Postemergence, 125 g ai/ha): 20; Wheat plant response rating [11, 13]: 60; Wheat plant response rating [11, 14]: 0; Plant response rating, Wheat ([11]; Preemergence, 500 g ai/ha): 90; Plant response rating, Pigweed ([12]; Postemergence, 125 g ai/ha): 50; Pigweed plant response rating [12, 13]: 60; Pigweed plant response rating [12, 14]: 60; Plant response rating, Pigweed ([12]; Preemergence, 500 g ai/ha): 70

Reference: patent US20100298141A1, “SUBSTITUTED PYRIDINE N-OXIDE HERBICIDES” (E. I. DU PONT DE NEMOURS AND COMPANY, priority 2007, published 2010)
